Measured values taken from US20180078615A1, “USE OF CCL2 TO INHIBIT ABNORMAL UTERINE BLEEDING” (UNIVERSITY OF SOUTH FLORIDA, priority 2015, published 2018).

Assays:
[1] = tested on: VSMCs; assay: Whole genome microarray analysis (Illumina HumanHT-12 v4) of cultured VSMCs treated with progestins; assay type: cell-based, human; conditions: VSMCs treated by P4
Source text: Cultured VSMCs (n=3) treated with control medium or medium containing medroxyprogesterone acetate (MPA, 10^−7 M), or etonogestrel (ETO, 10^−7 M) were processed for whole genome analyses using Illumina Human microarray kit. After qRT-PCR confirmation of several up and down regulated genes from microarray data, Ingenuity Pathway Analysis (IPA) determined relevant upstream signaling of LAPC altered gene expression. To investigate the role of genes and relevant signaling molecules identified by IPA, VSMCs (n=3) treated with MPA or ETO±1 or 10 ng/ml recombinant CCL2 (rCCL2)±STAT1 inhibitor, 5′-methyl-thioadenosine (MTA, 100 μM) were analyzed by BrdU incorporation proliferation, TUNEL based ELISA apoptosis and Transwell insert migration assays.
VSMCs were thawed and cultured in medium 231 (M231; Life Technologies) with smooth muscle growth supplement (5% FBS; 2 ng/mL human basic fibroblast growth factor, 0.5 ng/mL human epidermal growth factor, 5 ng/mL heparin, 0.2 μg/mL insulin and 5 μg/mL BSA; Life Technologies) with 100 U/mL penicillin, 100 μg/mL streptomycin, 0.25 μg/mL fungizone. Confluent VSMCs were washed twice with 1×PBS to remove residual serum, passaged in 96-well or 6-well plates and incubated in parallel in M231 with 1% charcoal striped FBS with 0.1% ethanol (vehicle, control) or 10^−7 M MPA (Sigma-Aldrich) or 10^−7 M ETO (Organon) or 10^−7 M P4 (Sigma-Aldrich) for 15 min, 6, 48, and 72 h. VSMCs were then washed with ice-cold PBS and stored at −80° C. for further RNA and protein analyses.
Total RNA was isolated using Qiagen miRNeasy Mini Kit (Qiagen) and RNeasy MinElute Cleanup Kit (Qiagen). The quality of isolated RNAs was confirmed using an Agilent 2100 Bioanalyzer. Microarray analysis was limited to those specimens in which RNA Integrity Number exceeded 8. Microarray processes were performed in the Keck Biotechnology Resource Laboratory at Yale University (New Haven, Conn.) using Illumina Human HT-12 v4 BeadChip (Illumina). Raw data without normalization were analyzed by GeneSpring GX12.5 software (Agilent Technologies-Silicon Genetics). Normalization was performed as described (35). Genes with a fold-change >1.25 and a P value<0.05 were considered differentially expressed. Ingenuity Pathway Analysis (IPA) software (Qiagen) explored molecular and biological networks related to differentially expressed genes.

[2] = tested on: VSMCs; assay: VSMC proliferation assay by BrdU incorporation; assay type: cell-based, human; conditions: 10^−7 M, 48-h treatment, mean±SEM; control 0.81±0.03
Protocol: VSMCs were grown in 96-well plates or 8-well chamber slides and incubated with 10^−7 M of MPA (Sigma-Aldrich) or ETO (Organon) or P4 (Sigma-Aldrich) or vehicle±rCCL2 (R&D Systems)±STAT1 inhibitor, 5′-methyl-thioadenosine (MTA; EMD Millipore) (19) for 48 or 72 h. VSMCs were then analyzed for apoptosis by an ELISA based apoptosis kit (Roche) or cleaved-caspase 3 immunostaining. VSMC proliferation was measured by BrdU incorporation Kit (Cell Signaling). (See further details in SI Materials and Methods).
VSMCs were thawed and cultured in T-75 cell culture flasks in medium 231 (M231; Life Technologies) with smooth muscle growth supplement (5% FBS; 2 ng/mL human basic fibroblast growth factor, 0.5 ng/mL human epidermal growth factor, 5 ng/mL heparin, 0.2 μg/mL insulin and 5 μg/mL BSA; Life Technologies) with 100 U/mL penicillin, 100 μg/mL streptomycin, and 0.25 μg/mL fungizone. Confluent VSMCs were washed twice with 1×PBS to remove residual serum, and then passaged (5,000 cells per well) in 96-well plates and incubated in parallel in M231 with 1% charcoal striped FBS with 0.1% ethanol (vehicle, control), 10^−7 M MPA (Sigma-Aldrich), 10^−7 M ETO (Organon), or 10^−7 M P4 (Sigma-Aldrich)±rCCL2 (monocyte chemotactic protein-1; R&D Systems)±STAT1 inhibitor, 5′-methyl-thioadenosine (MTA; EMD Millipore) for 48 or 72 h.
BrdU (Cell Signaling) 1× in 100-μL M231 was added to each well during the final 24 h of incubation. At the end of 48- or 72-h incubation period, medium was removed and the wells washed twice with ice-cold PBS. VSMC proliferation was measured using BrdU cell proliferation Kit (Cell Signaling) at room temperature. Cells was incubated in 100 μL per well of the fixing/denaturing solution for 30 min, and then replaced by 100 μL per well BrdU detection antibody solution for 1 h. Following three rinses with wash buffer, plates were incubated in HRP-conjugated secondary antibody (100 μL per well) for 30 min. After three additional rinses with wash buffer, tetramethylbenzidine substrate solution (100 μL per well) was added for 20 min and the reaction stopped by adding 100 μL per well STOP solution. Absorbance was measured at 450 nm using Spectra Max190 microplate reader (Molecular Devices) to detect BrdU incorporation in each well.

`CC(=O)[C@H]1CC[C@H]2[C@@H]3CCC4=CC(=O)CC[C@]4(C)[C@H]3CC[C@]12C` [P4, progesterone] was tested, and the “Fold-change, Chemokine (C-C motif) ligand 2 (CCL2)” value [1] was −1.289, the “Fold-change, Chromosome 9 ORF 167 (C9orf167)” value [1] was −1.283 and the “Fold-change, Complement factor B (CFB)” value [1] was −1.309. For the same molecule, the “Fold-change, Complement factor H, transcript variant 2 (CFH)” value [1] was 1.271, the “Fold-change, Cyclin C, transcript variant 2 (CCNC)” value [1] was 1.343 and the “Fold-change, Eukaryotic translation initiation factor 4 gamma, 2, transcript variant 1 (EIF4G2)” value [1] was 1.3. For the same molecule, the “Fold-change, Fukutin, transcript variant 2 (FKiTN)” value [1] was −1.299, the “Fold-change, G protein-coupled receptor 1 (GPR1)” value [1] was −1.283 and the “Fold-change, Homo sapiens thioredoxin domain containing 5, transcript variant 2 (TXNDC5)” value [1] was 1.361. For the same molecule, the “Fold-change, Hypothetical LOC100190938 (LOC100190938), transcript variant 2, noncoding RNA” value [1] was −1.358, the “Fold-change, Hypothetical gene supported by AK125735 (LOC441087)” value [1] was −1.467 and the “Fold-change, Hypothetical protein FLJ40504 (FLJ40504)” value [1] was −1.27. The “Fold-change, Hypoxia-inducible factor 1, a subunit, transcript variant 1 (HIF1A)” value [1] was 1.328, the “Fold-change, Integrin beta 1, transcript variant 1C-2 (ITGB1)” value [1] was 1.293 and the “Fold-change, Interleukin 33 (IL33)” value [1] was 1.275. The “Fold-change, Janus kinase 1 (JAK1)” value [1] was 1.292, the “Fold-change, Keratin 34 (KRT34)” value [1] was 1.268 and the “Fold-change, Microtubule-associated protein 1A (MAP1A)” value [1] was −1.269. For the same molecule, the “Fold-change, Minichromosome maintenance complex component 8, transcript variant 1 (MCM8)” value [1] was −1.32, the “Fold-change, Mitogen-activated protein kinase kinase 2 (MAP2K2)” value [1] was −1.346 and the “Fold-change, N-deacetylase/N-sulfotransferase (heparan glucosaminyl) 1 (NDST1)” value [1] was −1.306. For the same molecule, the “Fold-change, OCIA domain containing 1, transcript variant 5 (OCIAD1)” value [1] was −1.275, the “Fold-change, PREDICTED: misc_RNA (LOC100131609)” value [1] was 1.266 and the “Fold-change, Paralemmin, transcript variant 1 (PALM)” value [1] was −1.26. For the same molecule, the “Fold-change, Polyribonucleotide nucleotidyltransferase 1 (PNPT1)” value [1] was −1.286, the “Fold-change, Retinoic acid receptor responder (tazarotene induced) 1, transcript variant 1, (RARRES1)” value [1] was −1.271 and the “Fold-change, Retinoic acid receptor responder (tazarotene induced) 1, transcript variant 2, (RARRES1)” value [1] was −1.289. For the same molecule, the “Fold-change, Ring finger protein 11 (RNF11)” value [1] was 1.256, the “Fold-change, Serum amyloid A1, transcript variant 1 (SAA1)” value [1] was −1.324 and the “Fold-change, Serum amyloid A1 transcript variant 2 (SAA1)” value [1] was −1.566. The “Fold-change, Solute carrier family 44, member 1 (SLC44A1)” value [1] was 1.26, the “Fold-change, Staphylococcal nuclease and tudor domain containing 1 (SN D1)” value [1] was −1.25 and the “Fold-change, Sterol-C4-methyl oxidase-like, transcript variant 1 (SC4MOL)” value [1] was 1.296. The “Fold-change, Superoxide dismutase 2, mitochondria! transcript variant 2 (SOD2)” value [1] was −1.362, the “Fold-change, Thioredoxin reductase 1, transcript variant 4 (TXNRD1)” value [1] was 1.255 and the “Fold-change, Ubiquitin-like modifier activating enzyme 3, transcript variant 2 (UBA3)” value [1] was 1.293. For the same molecule, the “Fold-change, Zinc finger protein 682, transcript variant 1 (ZNF682)” value [1] was −1.254, the “Fold-change, cDNA FLJ20769 fis, clone COL06674 (PREDICTED: Receptor tyrosine kinase-like orphan receptor 1)” value [1] was 1.271 and the “Fold-change, Armadillo repeat containing, X-linked 3, transcript variant 2 (ARMCX3)” value ([1]; table entry 5) was 1.298. The “Fold-change, Armadillo repeat containing, X-linked 3, transcript variant 2 (ARMCX3)” value ([1]; table entry 10) was 1.284 and the BrdU incorporation [2] was 0.71±0.05.
